Results taken from PubChem BioAssay AID248 (DTP/NCI, 2004).
Several values for one entry are separate records, joined by “and”; a condition that tells them apart may be missing. Identical values can stand only once. Toxic doses and inconclusive results are not listed.

System: L1210 leukemia ip in BDF1 mice, survival T/C
Experiment: NCI In Vivo Anticancer Drug Screen. Data for tumor model L1210 Leukemia (intraperitoneal) in B6D2F1 (BDF1) mice
Conditions: endpoint: mean survival time, higher = longer survival
Summary of the method: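 Transplanted-tumor mice were given test agent; controls received vehicle only. Survival readings from the two groups were divided (treated over control).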

[1] = dose: 100.0 mg/kg/injection, schedule: Q01DX001 (ip), vehicle: carboxymethylcellulose (CMC)
[2] = dose: 200.0 mg/kg/injection, schedule: Q01DX001 (ip), vehicle: carboxymethylcellulose (CMC)
[3] = dose: 400.0 mg/kg/injection, schedule: Q01DX001 (ip), vehicle: carboxymethylcellulose (CMC)
[4] = dose: 100.0 mg/kg/injection, schedule: Q04DX003 (ip), vehicle: saline with Tween-80
[5] = dose: 200.0 mg/kg/injection, schedule: Q04DX003 (ip), vehicle: saline with Tween-80
[6] = dose: 50.0 mg/kg/injection, schedule: Q01DX009 (ip), vehicle: Klucel (hydroxypropylcellulose) (HPC)
[7] = dose: 100.0 mg/kg/injection, schedule: Q01DX009 (ip), vehicle: Klucel (hydroxypropylcellulose) (HPC)
[8] = dose: 100.0 mg/kg/injection, schedule: Q04DX002 (ip), vehicle: Klucel (hydroxypropylcellulose) (HPC)
[9] = dose: 400.0 mg/kg/injection, schedule: Q04DX003 (ip), vehicle: saline with Tween-80
[10] = dose: 25.0 mg/kg/injection, schedule: Q01DX009 (ip), vehicle: Klucel (hydroxypropylcellulose) (HPC)
[11] = dose: 100.0 mg/kg/injection, schedule: Q04DX003 (ip), vehicle: Klucel (hydroxypropylcellulose) (HPC)
[12] = dose: 200.0 mg/kg/injection, schedule: Q04DX003 (ip), vehicle: Klucel (hydroxypropylcellulose) (HPC)
[13] = dose: 400.0 mg/kg/injection, schedule: Q04DX003 (ip), vehicle: Klucel (hydroxypropylcellulose) (HPC)
[14] = dose: 100.0 mg/kg/injection, schedule: Q01DX009 (ip), vehicle: saline
[15] = dose: 100.0 mg/kg/injection, schedule: Q04DX003 (ip), vehicle: saline
[16] = dose: 200.0 mg/kg/injection, schedule: Q01DX009 (ip), vehicle: saline
[17] = dose: 200.0 mg/kg/injection, schedule: Q04DX003 (ip), vehicle: saline
[18] = dose: 100.0 mg/kg/injection, schedule: Q01DX001 (ip), vehicle: saline with Tween-80
[19] = dose: 200.0 mg/kg/injection, schedule: Q01DX001 (ip), vehicle: saline with Tween-80

With `CN(C)N=Nc1ccc(C(=O)N/N=C/c2ccccc2)cc1` the T/C (dose: 75.0 mg/kg/injection, schedule: Q04DX003 (ip), vehicle: Klucel (hydroxypropylcellulose) (HPC)) was 99 % of control, the T/C (dose: 150.0 mg/kg/injection, schedule: Q04DX003 (ip), vehicle: Klucel (hydroxypropylcellulose) (HPC)) was 97 % of control and the T/C (dose: 300.0 mg/kg/injection, schedule: Q04DX003 (ip), vehicle: Klucel (hydroxypropylcellulose) (HPC)) was 100 % of control.

`COc1cc(/C(C)=C2/SC(=S)NC2=O)cc(OC)c1OC` was tested, and the T/C [1] was 92 % of control, the T/C [2] was 90 % of control and the T/C [3] was 95 % of control.

In the case of `O=[N+]([O-])c1cccc(/C=C/c2ccc(S(=O)(=O)F)cc2)c1`, the T/C [4] is reported as 95 % of control and the T/C [5] is reported as 90 % of control.

`c1ccc(CSCc2ccccc2)cc1` was tested, and the T/C [6] was 97 % of control, the T/C [7] was 105 % of control and the T/C [8] was 105 % of control. For the same molecule, the T/C [4] was 96 % of control, the T/C (dose: 200.0 mg/kg/injection, schedule: Q01DX009 (ip), vehicle: Klucel (hydroxypropylcellulose) (HPC)) was 102 % of control and 86 % of control and the T/C (dose: 200.0 mg/kg/injection, schedule: Q04DX002 (ip), vehicle: Klucel (hydroxypropylcellulose) (HPC)) was 105 % of control. For the same molecule, the T/C [5] was 104 % of control, the T/C (dose: 400.0 mg/kg/injection, schedule: Q01DX009 (ip), vehicle: Klucel (hydroxypropylcellulose) (HPC)) was 86 % of control and the T/C (dose: 400.0 mg/kg/injection, schedule: Q04DX002 (ip), vehicle: Klucel (hydroxypropylcellulose) (HPC)) was 105 % of control. The T/C [9] was 96 % of control.

In the case of `O=C(O)C1CCC(=O)N1C(=O)OCc1ccccc1` (stereo not drawn), the T/C [4] is reported as 100 % of control, the T/C [5] is reported as 97 % of control and the T/C [9] is reported as 95 % of control.

With `CC(/C=C\c1cccc([N+](=O)[O-])c1)=N\NC(=O)c1ccncc1` the T/C [4] was 93 % of control, the T/C [5] was 101 % of control and the T/C [9] was 96 % of control.

`O=C(O)c1ccc(N=Cc2ccc(N(CCCl)CCCl)cc2)cc1O` was tested, and the T/C [1] was 95 % of control and the T/C [2] was 101 % of control.

With `O=NN(CCCl)C(=O)NCC1CCC(CNC(=O)N(CCCl)N=O)CC1` (stereo not drawn) the T/C (dose: 6.2 mg/kg/injection, schedule: Q01DX009 (ip), vehicle: carboxymethylcellulose (CMC)) was 113 % of control, the T/C (dose: 12.5 mg/kg/injection, schedule: Q01DX009 (ip), vehicle: carboxymethylcellulose (CMC)) was 111 % of control and the T/C [10] was 101 % of control. The T/C (dose: 25.0 mg/kg/injection, schedule: Q01DX009 (ip), vehicle: carboxymethylcellulose (CMC)) was 122 % of control, the T/C [6] was 98 % of control and the T/C (dose: 53.0 mg/kg/injection, schedule: Q01DX001 (ip), vehicle: carboxymethylcellulose (CMC)) was 117 % of control. The T/C (dose: 80.0 mg/kg/injection, schedule: Q01DX001 (ip), vehicle: carboxymethylcellulose (CMC)) was 117 % of control, the T/C [7] was 109 % of control and the T/C (dose: 177.0 mg/kg/injection, schedule: Q01DX001 (ip), vehicle: carboxymethylcellulose (CMC)) was 150 % of control. For the same molecule, the T/C (dose: 177.0 mg/kg/injection, schedule: Q01DX009 (ip), vehicle: carboxymethylcellulose (CMC)) was 278 % of control, the T/C (dose: 266.0 mg/kg/injection, schedule: Q01DX001 (ip), vehicle: carboxymethylcellulose (CMC)) was 225 % of control and the T/C (dose: 266.0 mg/kg/injection, schedule: Q01DX009 (ip), vehicle: carboxymethylcellulose (CMC)) was 188 % of control. For the same molecule, the T/C [3] was 275 % of control, the T/C (dose: 400.0 mg/kg/injection, schedule: Q01DX009 (ip), vehicle: carboxymethylcellulose (CMC)) was 103 % of control and the T/C (dose: 600.0 mg/kg/injection, schedule: Q01DX001 (ip), vehicle: carboxymethylcellulose (CMC)) was 250 % of control.

With `O=C(Nc1ccccc1C(F)(F)F)OCCOc1ccccc1Cl` the T/C [11] was 92 % of control, the T/C [12] was 92 % of control and the T/C [13] was 92 % of control.

With `Cn1c2c(c3ccccc31)=NN1CCN=C1N=2` the T/C (dose: 6.25 mg/kg/injection, schedule: Q04DX002 (ip), vehicle: saline) was 107 % of control and the T/C (dose: 12.5 mg/kg/injection, schedule: Q04DX002 (ip), vehicle: saline) was 103 % of control.

In the case of `CN(C)C1CCCCC1`, the T/C [10] is reported as 105 % of control, the T/C [6] is reported as 100 % of control and the T/C [7] is reported as 114 % of control. The T/C [11] was 117 % of control, the T/C [12] was 101 % of control and the T/C [13] was 96 % of control.

In the case of `NC(=O)CC[n+]1cccc(C(=O)O)c1`, the T/C [14] is reported as 93 % of control, the T/C [15] is reported as 94 % of control and the T/C [16] is reported as 88 % of control. The T/C [17] was 93 % of control, the T/C (dose: 400.0 mg/kg/injection, schedule: Q01DX009 (ip), vehicle: saline) was 92 % of control and the T/C (dose: 400.0 mg/kg/injection, schedule: Q04DX003 (ip), vehicle: saline) was 94 % of control.

`Nc1cccc(CCc2nc(N)nc(N)c2-c2ccc(Cl)c(Cl)c2)c1` was tested, and the T/C [18] was 95 % of control, the T/C [19] was 109 % of control and the T/C (dose: 400.0 mg/kg/injection, schedule: Q01DX001 (ip), vehicle: saline with Tween-80) was 109 % of control.

In the case of `O=C(/C=C/c1ccccc1)OCc1ccccc1CN1C=CON1`, the T/C (dose: 25.0 mg/kg/injection, schedule: Q04DX002 (ip), vehicle: Klucel (hydroxypropylcellulose) (HPC)) is reported as 115 % of control, the T/C (dose: 50.0 mg/kg/injection, schedule: Q04DX002 (ip), vehicle: Klucel (hydroxypropylcellulose) (HPC)) is reported as 105 % of control and the T/C [8] is reported as 105 % of control.

With `CCOC(=O)C1(C(=O)OCC)CCC2Nc3ccccc3CC(=O)N21` (stereo not drawn) the T/C (dose: 25.0 mg/kg/injection, schedule: Q04DX003 (ip), vehicle: Klucel (hydroxypropylcellulose) (HPC)) was 101 % of control, the T/C (dose: 50.0 mg/kg/injection, schedule: Q04DX003 (ip), vehicle: Klucel (hydroxypropylcellulose) (HPC)) was 94 % of control and the T/C [11] was 100 % of control.

For `COc1ccc(CCCCCl)cc1`, the T/C (dose: 100.0 mg/kg/injection, schedule: Q01DX001 (ip), vehicle: acetone) was 95 % of control, the T/C (dose: 200.0 mg/kg/injection, schedule: Q01DX001 (ip), vehicle: acetone) was 95 % of control and the T/C (dose: 400.0 mg/kg/injection, schedule: Q01DX001 (ip), vehicle: acetone) was 96 % of control.

With `COC(=O)C1=NNCC1C(=O)N1Cc2cc3ccccc3nc2C1` (stereo not drawn) the T/C (dose: 10.0 mg/kg/injection, schedule: Q04DX003 (ip), vehicle: saline) was 103 % of control, the T/C (dose: 20.0 mg/kg/injection, schedule: Q04DX003 (ip), vehicle: saline) was 99 % of control and the T/C (dose: 40.0 mg/kg/injection, schedule: Q04DX003 (ip), vehicle: saline) was 103 % of control. The T/C (dose: 80.0 mg/kg/injection, schedule: Q04DX003 (ip), vehicle: saline) was 92 % of control and the T/C (dose: 160.0 mg/kg/injection, schedule: Q04DX003 (ip), vehicle: saline) was 97 % of control.

In the case of `O=C(c1ccccc1)C(Nc1ccccn1)c1ccccc1` (stereo not drawn), the T/C (dose: 75.0 mg/kg/injection, schedule: Q01DX001 (ip), vehicle: carboxymethylcellulose (CMC)) is reported as 96 % of control, the T/C (dose: 150.0 mg/kg/injection, schedule: Q01DX001 (ip), vehicle: carboxymethylcellulose (CMC)) is reported as 94 % of control and the T/C (dose: 300.0 mg/kg/injection, schedule: Q01DX001 (ip), vehicle: carboxymethylcellulose (CMC)) is reported as 94 % of control.

`CCCCNCC#N` was tested, and the T/C (dose: 50.0 mg/kg/injection, schedule: Q01DX001 (ip), vehicle: saline) was 110 % of control.

For `OC(c1ccc(F)cc1)(c1ccc(F)cc1)C1CC1`, the T/C [18] was 106 % of control and the T/C [19] was 105 % of control.

With `O=[N+]([O-])c1cc(Br)c2c(c1)CCN2` the T/C (dose: 12.5 mg/kg/injection, schedule: Q01DX005 (ip), vehicle: other) was 100 % of control, the T/C (dose: 25.0 mg/kg/injection, schedule: Q01DX005 (ip), vehicle: other) was 102 % of control and the T/C (dose: 50.0 mg/kg/injection, schedule: Q01DX005 (ip), vehicle: other) was 100 % of control. The T/C (dose: 100.0 mg/kg/injection, schedule: Q01DX005 (ip), vehicle: other) was 105 % of control and the T/C (dose: 200.0 mg/kg/injection, schedule: Q01DX005 (ip), vehicle: other) was 102 % of control.

`C/C=C\C#N` was tested, and the T/C [14] was 106 % of control, the T/C [15] was 103 % of control and the T/C [16] was 108 % of control. For the same molecule, the T/C [17] was 113 % of control.

In the case of `COc1ccccc1/C=C\C(=O)C1COCN1` (stereo not drawn), the T/C (dose: 75.0 mg/kg/injection, schedule: Q04DX003 (ip), vehicle: saline) is reported as 105 % of control, the T/C (dose: 150.0 mg/kg/injection, schedule: Q04DX003 (ip), vehicle: saline) is reported as 100 % of control and the T/C (dose: 300.0 mg/kg/injection, schedule: Q04DX003 (ip), vehicle: saline) is reported as 102 % of control.
